Measured values reported in PubChem BioAssay AID330 (DTP/NCI, 2004).
Where “and” joins values, the source holds several entries; their conditions need not be identical. Equal values may be shown once. Inconclusive results and toxic doses are left out.

System: P388 leukemia ip, CD2F1 mice, survival T/C
Assay: NCI In Vivo Anticancer Drug Screen. Data for tumor model P388 Leukemia (intraperitoneal) in CD2F1 (CDF1) mice
Settings: endpoint: median survival time, higher = longer survival
Method in brief: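 Mice carrying the transplanted tumor received test compound or vehicle. Survival was recorded in each group, and the value is the treated-group measurement divided by that of the vehicle-treated control group.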

[1] = dose: 100.0 mg/kg/injection, schedule: Q04DX002 (ip), vehicle: saline with Tween-80
[2] = dose: 200.0 mg/kg/injection, schedule: Q04DX002 (ip), vehicle: saline with Tween-80
[3] = dose: 50.0 mg/kg/injection, schedule: Q01DX005 (ip), vehicle: Klucel (hydroxypropylcellulose) (HPC)
[4] = dose: 100.0 mg/kg/injection, schedule: Q01DX005 (ip), vehicle: Klucel (hydroxypropylcellulose) (HPC)
[5] = dose: 200.0 mg/kg/injection, schedule: Q01DX005 (ip), vehicle: Klucel (hydroxypropylcellulose) (HPC)
[6] = dose: 50.0 mg/kg/injection, schedule: Q01DX009 (ip), vehicle: saline with Tween-80
[7] = dose: 100.0 mg/kg/injection, schedule: Q01DX009 (ip), vehicle: saline with Tween-80
[8] = dose: 100.0 mg/kg/injection, schedule: Q04DX003 (ip), vehicle: saline
[9] = dose: 60.0 mg/kg/injection, schedule: Q01DX005 (ip), vehicle: saline with Tween-80
[10] = dose: 120.0 mg/kg/injection, schedule: Q01DX005 (ip), vehicle: saline with Tween-80
[11] = dose: 6.25 mg/kg/injection, schedule: Q01DX009 (ip), vehicle: Klucel (hydroxypropylcellulose) (HPC)
[12] = dose: 12.5 mg/kg/injection, schedule: Q01DX009 (ip), vehicle: Klucel (hydroxypropylcellulose) (HPC)
[13] = dose: 50.0 mg/kg/injection, schedule: Q01DX009 (ip), vehicle: saline
[14] = dose: 100.0 mg/kg/injection, schedule: Q01DX009 (ip), vehicle: saline
[15] = dose: 200.0 mg/kg/injection, schedule: Q01DX009 (ip), vehicle: saline

SMILES: COC(=O)c1cc(-c2ccc(C)cc2)[nH]c(=O)c1C#N
- T/C (dose: 60.0 mg/kg/injection, schedule: Q01DX005 (ip), vehicle: saline): 103 % of control
- T/C (dose: 120.0 mg/kg/injection, schedule: Q01DX005 (ip), vehicle: saline): 100 % of control
- T/C (dose: 240.0 mg/kg/injection, schedule: Q01DX005 (ip), vehicle: saline): 108 % of control

SMILES: COc1ccc(N=Nc2c(C)[nH]n(C)c2=O)cc1
- T/C [1]: 96 % of control
- T/C [2]: 97 % of control

SMILES: CC(C)CC(C(=O)O)N(C)C(=O)OC(C)(C)C (stereo unspecified)
- T/C [3]: 101 % of control
- T/C [4]: 93 % of control
- T/C [5]: 99 % of control

SMILES: NC(=O)c1ccc(N=Nc2c(O)c3ccccc3[nH]c2=O)cc1
- T/C (dose: 50.0 mg/kg/injection, schedule: Q01DX005 (ip), vehicle: saline + Tween-80 + alcohol): 105 % of control
- T/C (dose: 100.0 mg/kg/injection, schedule: Q01DX005 (ip), vehicle: saline + Tween-80 + alcohol): 93 % of control
- T/C (dose: 200.0 mg/kg/injection, schedule: Q01DX005 (ip), vehicle: saline + Tween-80 + alcohol): 89 % of control

SMILES: NC(Cc1ccc(Br)cc1)c1nn[nH]n1 (stereo unspecified)
- T/C (dose: 25.0 mg/kg/injection, schedule: Q01DX009 (ip), vehicle: saline with Tween-80): 104 % of control
- T/C [6]: 100 % of control
- T/C [7]: 100 % of control

SMILES: CS/C(=C\C=Nc1ccccc1)c1ccccc1
- T/C [1]: 103 % of control
- T/C [2]: 100 % of control
- T/C (dose: 400.0 mg/kg/injection, schedule: Q04DX002 (ip), vehicle: saline with Tween-80): 109 % of control

SMILES: CN(C)C1CC2CCCCC2CC1O (stereo unspecified)
- T/C (dose: 25.0 mg/kg/injection, schedule: Q04DX003 (ip), vehicle: saline): 93 % of control
- T/C (dose: 50.0 mg/kg/injection, schedule: Q04DX003 (ip), vehicle: saline): 99 % of control
- T/C (dose: 100.0 mg/kg/injection, schedule: Q01DX001 (ip), vehicle: saline): 104 % of control
- T/C [8]: 103 % of control
- T/C (dose: 200.0 mg/kg/injection, schedule: Q01DX001 (ip), vehicle: saline): 98 % of control

SMILES: CCCCOC1OCN(Cc2ccccc2)CC1(C)C (stereo unspecified)
- T/C [6]: 111 % of control
- T/C [7]: 123 % of control
- T/C (dose: 200.0 mg/kg/injection, schedule: Q01DX009 (ip), vehicle: saline with Tween-80): 122 % of control

SMILES: Cc1nc2nc(O)c(Cc3ccccc3)c(=O)n2nc1C
- T/C [3]: 95 % of control
- T/C [4]: 93 % of control
- T/C [5]: 95 % of control

SMILES: NC(=S)C(F)(F)F
- T/C (dose: 75.0 mg/kg/injection, schedule: Q01DX001 (ip), vehicle: saline with Tween-80): 103 % of control
- T/C (dose: 150.0 mg/kg/injection, schedule: Q01DX001 (ip), vehicle: saline with Tween-80): 113 % of control
- T/C (dose: 300.0 mg/kg/injection, schedule: Q01DX001 (ip), vehicle: saline with Tween-80): 103 % of control

SMILES: O=C(Oc1ccc[nH]c1=O)C1CCCCC1
- T/C [3]: 108 % of control and 96 % of control
- T/C [4]: 100 % of control and 89 % of control
- T/C [5]: 102 % of control and 86 % of control
- T/C (dose: 400.0 mg/kg/injection, schedule: Q01DX005 (ip), vehicle: Klucel (hydroxypropylcellulose) (HPC)): 92 % of control and 97 % of control

SMILES: Cc1cccc(Nc2c3ccccc3nc3ccccc23)c1
- T/C (dose: 25.0 mg/kg/injection, schedule: Q01DX001 (ip), vehicle: saline with Tween-80): 95 % of control
- T/C (dose: 50.0 mg/kg/injection, schedule: Q01DX001 (ip), vehicle: saline with Tween-80): 100 % of control
- T/C (dose: 100.0 mg/kg/injection, schedule: Q01DX001 (ip), vehicle: saline with Tween-80): 95 % of control

SMILES: Cc1cc(N=[N+]=[N-])c2ccc(F)cc2n1
- T/C [9]: 94 % of control
- T/C [10]: 92 % of control

SMILES: CC(C)=N/N=C1\C(OC(=O)Nc2ccccc2)=Nc2ccccc21
- T/C (dose: 50.0 mg/kg/injection, schedule: Q01DX005 (ip), vehicle: saline with Tween-80): 96 % of control
- T/C (dose: 100.0 mg/kg/injection, schedule: Q01DX005 (ip), vehicle: saline with Tween-80): 95 % of control
- T/C (dose: 200.0 mg/kg/injection, schedule: Q01DX005 (ip), vehicle: saline with Tween-80): 90 % of control

SMILES: O=C(/C=C/C1N=C1c1ccccc1)c1ccccc1 (stereo unspecified)
- T/C (dose: 25.0 mg/kg/injection, schedule: Q01DX001 (ip), vehicle: Klucel (hydroxypropylcellulose) (HPC)): 100 % of control
- T/C (dose: 50.0 mg/kg/injection, schedule: Q01DX001 (ip), vehicle: Klucel (hydroxypropylcellulose) (HPC)): 107 % of control
- T/C (dose: 100.0 mg/kg/injection, schedule: Q01DX001 (ip), vehicle: Klucel (hydroxypropylcellulose) (HPC)): 106 % of control and 107 % of control

SMILES: C[CH2][Hg][S]c1nsc([S][Hg][CH2]C)n1
- T/C (dose: 3.13 mg/kg/injection, schedule: Q01DX009 (ip), vehicle: Klucel (hydroxypropylcellulose) (HPC)): 94 % of control
- T/C [11]: 118 % of control and 95 % of control
- T/C [12]: 98 % of control and 115 % of control

SMILES: COC(=O)c1ccc(SCC(=O)c2ccc([N+](=O)[O-])o2)cc1
- T/C (dose: 50.0 mg/kg/injection, schedule: Q01DX009 (ip), vehicle: suspension in saline): 88 % of control
- T/C (dose: 100.0 mg/kg/injection, schedule: Q01DX009 (ip), vehicle: suspension in saline): 97 % of control

SMILES: Cc1nnc2nc(N)[nH]n2c1=O
- T/C (dose: 25.0 mg/kg/injection, schedule: Q01DX005 (ip), vehicle: water): 95 % of control
- T/C (dose: 50.0 mg/kg/injection, schedule: Q01DX005 (ip), vehicle: water): 98 % of control
- T/C (dose: 100.0 mg/kg/injection, schedule: Q01DX005 (ip), vehicle: water): 93 % of control

SMILES: CC(=O)Nc1ccc2c(c1)Cc1cccc(NC(C)=O)c1-2
- T/C [13]: 105 % of control
- T/C [14]: 110 % of control
- T/C [15]: 115 % of control

SMILES: [Cl][Pt+2][Cl].[NH-]CCC[NH-]
- T/C (dose: 6.25 mg/kg/injection, schedule: Q04DX002 (ip), vehicle: saline): 178 % of control
- T/C (dose: 12.5 mg/kg/injection, schedule: Q04DX002 (ip), vehicle: saline): 183 % of control

SMILES: [Cl][Pt+2][Cl].[NH-]C1CCCC1.[NH-]C1CCCC1
- T/C (dose: 20.0 mg/kg/injection, schedule: Q01DX009 (ip), vehicle: Klucel (hydroxypropylcellulose) (HPC)): 156 % of control and 169 % of control
- T/C (dose: 40.0 mg/kg/injection, schedule: Q01DX009 (ip), vehicle: Klucel (hydroxypropylcellulose) (HPC)): 156 % of control and 168 % of control and 175 % of control
- T/C (dose: 80.0 mg/kg/injection, schedule: Q01DX009 (ip), vehicle: Klucel (hydroxypropylcellulose) (HPC)): 179 % of control and 193 % of control and 220 % of control
- T/C (dose: 160.0 mg/kg/injection, schedule: Q01DX009 (ip), vehicle: Klucel (hydroxypropylcellulose) (HPC)): 182 % of control and 233 % of control
- T/C (dose: 320.0 mg/kg/injection, schedule: Q01DX009 (ip), vehicle: Klucel (hydroxypropylcellulose) (HPC)): 110 % of control and 186 % of control and 229 % of control

SMILES: CS(=O)(=O)N/N=C/C(=O)O
- T/C (dose: 12.5 mg/kg/injection, schedule: Q01DX009 (ip), vehicle: water): 118 % of control
- T/C (dose: 50.0 mg/kg/injection, schedule: Q01DX009 (ip), vehicle: water): 160 % of control
- T/C (dose: 100.0 mg/kg/injection, schedule: Q01DX009 (ip), vehicle: water): 157 % of control and 159 % of control

SMILES: CCCCCCCCCCCCCCCC(=O)OCC(COP(=O)(O)OCC(COC(=O)CCCCCCCCCCCCCCC)OC(=O)CCCCCCCCCCCCCCC)OC(=O)CCCCCCCCCCCCCCC (stereo unspecified)
- T/C [13]: 98 % of control
- T/C [14]: 100 % of control
- T/C [15]: 101 % of control

SMILES: COC(=O)c1cc(-c2ccco2)c2c(=O)n(-c3ccccc3)[nH]c2n1
- T/C [9]: 103 % of control
- T/C [10]: 105 % of control
- T/C (dose: 240.0 mg/kg/injection, schedule: Q01DX005 (ip), vehicle: saline with Tween-80): 94 % of control

SMILES: COc1cc(C2OC(=O)c3ccccc3S2)ccc1O (stereo unspecified)
- T/C [11]: 114 % of control
- T/C [12]: 110 % of control and 119 % of control
- T/C (dose: 25.0 mg/kg/injection, schedule: Q01DX009 (ip), vehicle: Klucel (hydroxypropylcellulose) (HPC)): 114 % of control and 120 % of control
- T/C (dose: 50.0 mg/kg/injection, schedule: Q01DX009 (ip), vehicle: Klucel (hydroxypropylcellulose) (HPC)): 106 % of control
- T/C (dose: 100.0 mg/kg/injection, schedule: Q01DX009 (ip), vehicle: Klucel (hydroxypropylcellulose) (HPC)): 118 % of control

SMILES: CCOC(=O)NC
- T/C [8]: 104 % of control
- T/C (dose: 200.0 mg/kg/injection, schedule: Q04DX003 (ip), vehicle: saline): 100 % of control
- T/C (dose: 400.0 mg/kg/injection, schedule: Q04DX003 (ip), vehicle: saline): 104 % of control
